These results are taken from patent US10766928B2, “Targeted conformationally-constrained kinked endosomal disrupting peptides” (priority 2012, dated 2020).

Data set [1] can be described thus: Thermodynamic solubility in PBS (pH 7.4). The note with it: for solubility thermodynamic at 24 h: phosphate buffered saline. It counts as physicochemical. The source says:
Values in parentheses represent 95% confidence intervals. N.D., not determined.
Measurements represent duplicate or more replicates, with active peptides subjected to multiple replicates. ND: not determined. The peptide was non-toxic and soluble in cell culture medium at this concentration.

Data set [2] relates to endosomes of Jurkat lymphocytes. Put plainly: Endosome disruption in Jurkat lymphocytes: release of carboxyfluorescein from disulfide probe Compound 2, flow cytometry. Conditions: for Efficacy (% of 1): % of the effect of compound 1, calculated span of dose-response curve, ± standard deviation; for Efficacy (% of 1) / Efficacy (% of max. 1): Jurkat; for Efficacy (% of max. 1): % change in cellular fluorescence relative to maximal response of Compound 1 (100%). The method in brief:
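Human Jurkat cells treated with compounds plus disulfide probe Compound 2 (2.5 μM) for 14 h at 37 °C. Cytoplasmic release of pH-sensitive fluorophore Compound 3 quantified by flow cytometry. IC50 by non-linear regression; efficacy as % fluorescence change relative to Compound 1 maximum (100%).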

Data set [3] has as its system Jurkat lymphocytes. As to the method:
The effects of the compounds of the invention on human Juikat leukemia cells were evaluated using flow cytometry-based assays of potency, efficacy, and toxicity. […] Analysis of flow cytometry data by non-linear regression was used to determine IC50 values for potency with the efficacy expressed as a percentage. […] Dose-dependent effects on cellular viability after 48 h at 37° C. in culture were also measured by flow cytometry.
The # represents the compound number in accordance with Tables A, B, and C. Concentrations of compound stock solutions were determined by absorbance measurements at 280 nm. Efficacy was determined as % change in cellular fluorescence relative to the maximal response of Compound 1, defined as 100%. Potencies and efficacies in Jurkat lymphocytes were measured by flow cytometry after treatment of cells with the compounds listed and the fluorescent probe Compound 2 (2.5 μM) for 14 hours. Toxicity to this cell line was determined by flow cytometry analysis of light scattering and counterstaining with PI after treatment for 48 h at 37° C. in culture. […] N.D., not determined.

The mark [4] stands for this setting: pH 7.4, Table 1, PBS pH 7.4, 24 hours at 22° C., ±S.D., read-out: Solubility (aq.).
Setting [5] is: pH 7.4, Table 3, PBS pH 7.4, 24 h at 22° C., read-out: Solubility.
[6] abbreviates: read-out: Potency, Table 2, EC50 ± standard deviation, Jurkat lymphocytes, disulfide-linked fluorescent probe (2.5 μM), 14 h.
[7] abbreviates: read-out: Toxicity, Table 3, IC50, Jurkat, 48 h at 37° C., footnote a: non-toxic and soluble in cell culture medium at this concentration.
[8] abbreviates: read-out: Potency (EC50), Table 1, Jurkat lymphocytes, probe Compound 2 (2.5 μM), 14 hours, 95% confidence interval in neighbouring cell.

Converted amounts (≈) assume the structure as drawn. Where two headings read alike, the source gives them in different places. Non-standard residues stand in square brackets, D forms with d. Residues, ends and D or L forms follow the SMILES beside them. *: point of attachment. Pentanoyl(5-NH-cholesteryl) = CC(C)CCC[C@@H](C)[C@H]1CC[C@H]2[C@@H]3CC=C4C[C@@H](NCCCCC(=O)*)CC[C@]4(C)[C@H]3CC[C@]12C; Cholesteryloxycarbonyl = CC(C)CCC[C@@H](C)[C@H]1CC[C@H]2[C@@H]3CC=C4C[C@@H](OC(=O)*)CC[C@]4(C)[C@H]3CC[C@]12C; PEG3 = NCCOCCOCCOCCC(=O)O; Pra = C#CC[C@H](N)C(=O)O; Aib = CC(C)(N)C(=O)O; Ahx = NCCCCCC(=O)O; βAla = NCCC(=O)O A value given as a limit tells only on which side of the number the result lay.

As to `CC(C)CCC[C@@H](C)[C@H]1CC[C@H]2[C@@H]3CC=C4C[C@@H](NCCCCC(=O)NCCC(=O)N[C@@H](CCC(=O)O)C(=O)N[C@@H](CCC(=O)O)C(=O)NCCCCCC(=O)NCCCCCC(=O)NC(C)(C)C(=O)NC(C)(C)C(=O)NC(C)(C)C(=O)NC(C)(C)C(=O)N[C@@H](Cc5ccc(O)cc5)C(=O)N[C@@H](Cc5ccc(O)cc5)C(=O)N[C@@H](C)C(=O)N[C@@H](Cc5ccc(O)cc5)C(=O)N[C@@H](Cc5ccc(O)cc5)C(=O)N5CCC[C@H]5C(=O)N5CCC[C@H]5C(=O)N[C@H](C(=O)N[C@H](C(N)=O)C(C)C)C(C)C)CC[C@]4(C)[C@H]3CC[C@]12C` [Compound 25, R = BEEXXUUUUYYAYYPPVV-CONH2] ({Pentanoyl(5-NH-cholesteryl)-βAla}-EE[Ahx][Ahx][Aib][Aib][Aib][Aib]YYAYYPPVV-NH2), the solubility thermodynamic at 24 h in data set [1] (setting [4]) amounted to 22 ± 1 µM (≈ 54.9 µg/mL). Besides, the EC50 in data set [2] (14 h) amounted to 0.09 µM. The compound further gave an IC50 in data set [3] (48 h) of 9 µM.

For `CC(C)CCC[C@@H](C)[C@H]1CC[C@H]2[C@@H]3CC=C4C[C@@H](NCCCCC(=O)N[C@@H](CCC(=O)O)C(=O)N[C@@H](CCC(=O)O)C(=O)NCCCCCC(=O)NCCCCCC(=O)N[C@@H](C)C(=O)N[C@@H](C)C(=O)N[C@@H](C)C(=O)N[C@@H](Cc5c[nH]c6ccccc56)C(=O)N[C@@H](Cc5c[nH]c6ccccc56)C(=O)N[C@@H](C)C(=O)N[C@@H](Cc5ccc(O)cc5)C(=O)N[C@@H](Cc5c[nH]c6ccccc56)C(=O)N5CCC[C@H]5C(=O)N5CCC[C@H]5C(=O)N[C@H](C(=O)N[C@@H](C)C(N)=O)C(C)C)CC[C@]4(C)[C@H]3CC[C@]12C` [Compound 5, R = EEXXAAAWWAYWPPVA-CONH2] ({Pentanoyl(5-NH-cholesteryl)}-EE[Ahx][Ahx]AAAWWAYWPPVA-NH2), the solubility thermodynamic at 24 h in data set [1] (setting [4]) stood at 10 ± 1 µM (≈ 23.4 µg/mL). The compound further yielded an EC50 in data set [2] (14 h) of 0.4 µM. In addition, the IC50 in data set [3] (48 h) amounted to 14 µM.

Take `CC(=O)NC(C)(C)C(=O)NC(C)(C)C(=O)NC(C)(C)C(=O)NC(C)(C)C(=O)N[C@@H](Cc1c[nH]c2ccccc12)C(=O)N[C@@H](Cc1c[nH]c2ccccc12)C(=O)N[C@@H](C)C(=O)N[C@@H](Cc1c[nH]c2ccccc12)C(=O)N[C@@H](Cc1ccc(O)cc1)C(=O)N1CCC[C@H]1C(=O)N1CCC[C@H]1C(=O)N[C@H](C(=O)N[C@H](C(N)=O)C(C)C)C(C)C` [Compound 78] (Ac-[Aib][Aib][Aib][Aib]WWAWYPPVV-NH2): the solubility thermodynamic at 24 h in data set [1] (setting [5]) worked out at 5 ± 1 µM (≈ 7.92 µg/mL). The “Efficacy (% of 1)” value in data set [2] (Table 2, 14 h) was 70 ± 2%. In data set [2] (setting [6]), the EC50 is 2.3 ± 0.3 µM. Besides, in data set [3] (setting [7]), the IC50 is over 16 µM.

Regarding `CC(C)CCC[C@@H](C)[C@H]1CC[C@H]2[C@@H]3CC=C4C[C@@H](NCCCCC(=O)NCCC(=O)N[C@@H](CCC(=O)O)C(=O)N[C@@H](CCC(=O)O)C(=O)NCCCCCC(=O)NC(C)(C)C(=O)NC(C)(C)C(=O)NC(C)(C)C(=O)N[C@@H](Cc5c[nH]c6ccccc56)C(=O)N[C@@H](Cc5c[nH]c6ccccc56)C(=O)N[C@@H](C)C(=O)N[C@@H](Cc5ccc(O)cc5)C(=O)N[C@@H](Cc5c[nH]c6ccccc56)C(=O)N5CCC[C@H]5C(=O)N5CCC[C@H]5C(=O)N[C@H](C(=O)N[C@@H](C)C(N)=O)C(C)C)CC[C@]4(C)[C@H]3CC[C@]12C` [Compound 9, R = BEEXUUUWWAYWPPVA-CONH2] ({Pentanoyl(5-NH-cholesteryl)-βAla}-EE[Ahx][Aib][Aib][Aib]WWAYWPPVA-NH2), the solubility thermodynamic at 24 h in data set [1] (setting [4]) amounted to 12 ± 1 µM (≈ 28.1 µg/mL). Besides, in data set [2] (14 h), the EC50 was 0.4 µM. The compound also had an IC50 in data set [3] (48 h) of 11 µM.

Turning to `CC(=O)NC(C)(C)C(=O)NC(C)(C)C(=O)NC(C)(C)C(=O)N[C@@H](Cc1c[nH]c2ccccc12)C(=O)N[C@@H](Cc1c[nH]c2ccccc12)C(=O)N[C@@H](C)C(=O)N[C@@H](Cc1ccc(O)cc1)C(=O)N[C@@H](Cc1c[nH]c2ccccc12)C(=O)N1CCC[C@H]1C(=O)N1CCC[C@H]1C(=O)N[C@H](C(=O)N[C@@H](C)C(N)=O)C(C)C` [Compound 41] (Ac-[Aib][Aib][Aib]WWAYWPPVA-NH2), the solubility thermodynamic at 24 h in data set [1] (setting [4]) came out at 24 ± 3 µM (≈ 35.3 µg/mL). For the same compound, the “Endosome disruption activity (in words)” value in data set [2] (Jurkat endosome disruption assay) is “substantial endosome disruption activity”. Also, the “Efficacy (% of max. 1)” value in data set [2] (Table 1, 14 hours) worked out at 53%. Also, the EC50 in data set [2] (setting [8]) worked out at 5.9 µM. In addition, in data set [3] (read-out: Toxicity (IC50), Table 1, Jurkat lymphocytes, 48 h at 37° C.), the IC50 is over 100 µM.

`CC(C)[C@H](NC(=O)[C@@H](NC(=O)[C@@H]1CCCN1C(=O)[C@@H]1CCCN1C(=O)[C@H](Cc1ccc(O)cc1)NC(=O)[C@H](Cc1c[nH]c2ccccc12)NC(=O)[C@H](C)NC(=O)[C@H](Cc1c[nH]c2ccccc12)NC(=O)[C@H](Cc1c[nH]c2ccccc12)NC(=O)C(C)(C)NC(=O)C(C)(C)NC(=O)C(C)(C)NC(=O)C(C)(C)N)C(C)C)C(N)=O` [Compound 54] (H-[Aib][Aib][Aib][Aib]WWAWYPPVV-NH2): the solubility thermodynamic at 24 h in data set [1] (setting [5]) came out at 8 ± 1 µM (≈ 12.3 µg/mL). Moreover, in data set [2] (Table 1, 14 hours), the “Efficacy (% of max. 1)” value was determined as 100%. Also, the “Efficacy (% of 1)” value in data set [2] (Table 2, 14 h) is given as 101 ± 2%. Besides, the EC50 in data set [2] (setting [8]) came out at 3.8 µM; in data set [2] (setting [6]), 5.4 ± 1.6 µM. For the same compound, the IC50 in data set [3] (setting [7]) is over 16 µM.

In the case of `C#CC[C@H](NC(=O)[C@H](CCC(=O)O)NC(=O)[C@H](CCC(=O)O)NC(=O)CCNC(=O)CCCCN[C@H]1CC[C@@]2(C)C(=CC[C@H]3[C@@H]4CC[C@H]([C@H](C)CCCC(C)C)[C@@]4(C)CC[C@@H]32)C1)C(=O)NCCOCCOCCOCCC(=O)NCCOCCOCCOCCC(=O)NC(C)(C)C(=O)NC(C)(C)C(=O)NC(C)(C)C(=O)NC(C)(C)C(=O)N[C@@H](Cc1c[nH]c2ccccc12)C(=O)N[C@@H](Cc1c[nH]c2ccccc12)C(=O)N[C@@H](C)C(=O)N[C@@H](Cc1ccc(O)cc1)C(=O)N[C@@H](Cc1c[nH]c2ccccc12)C(=O)N1CCC[C@H]1C(=O)N1CCC[C@H]1C(=O)N[C@H](C(=O)N[C@@H](C)C(N)=O)C(C)C` [Compound 31, R = BEEZOOUUUUWWAYWPPVA-CONH2] ({Pentanoyl(5-NH-cholesteryl)-βAla}-EE[Pra][PEG3][PEG3][Aib][Aib][Aib][Aib]WWAYWPPVA-NH2), in data set [1] (Table 1, PBS pH 7.4, 24 hours at 22° C., ±S.D.), the “Solubility (aq., μM)” value was 5 ± 1 µM (≈ 14.1 µg/mL). The solubility thermodynamic at 24 h in data set [1] (setting [4]) is under 5 µM. In data set [2] (14 h), the EC50 is 0.08 µM. Further, the IC50 in data set [3] (48 h) stood at 4 µM.

`C#CC[C@H](NC(=O)[C@H](CCC(=O)O)NC(=O)[C@H](CCC(=O)O)NC(=O)CCNC(=O)CCNC(=O)O[C@H]1CC[C@@]2(C)C(=CC[C@H]3[C@@H]4CC[C@H]([C@H](C)CCCC(C)C)[C@@]4(C)CC[C@@H]32)C1)C(=O)NCCOCCOCCOCCC(=O)NCCOCCOCCOCCC(=O)NC(C)(C)C(=O)NC(C)(C)C(=O)NC(C)(C)C(=O)NC(C)(C)C(=O)N[C@@H](Cc1c[nH]c2ccccc12)C(=O)N[C@@H](Cc1c[nH]c2ccccc12)C(=O)N[C@@H](C)C(=O)N[C@@H](Cc1ccc(O)cc1)C(=O)N[C@@H](Cc1c[nH]c2ccccc12)C(=O)N1CCC[C@H]1C(=O)N1CCC[C@H]1C(=O)N[C@H](C(=O)N[C@H](C(N)=O)C(C)C)C(C)C` [Compound 36, R″ = BEEZOOUUUUWWAYWPPVV-CONH2] ({Cholesteryloxycarbonyl-βAla-βAla}-EE[Pra][PEG3][PEG3][Aib][Aib][Aib][Aib]WWAYWPPVV-NH2): the solubility thermodynamic at 24 h in data set [1] (setting [4]) came to 233 ± 21 µM (≈ 666 µg/mL). Also, in data set [2] (14 h), the EC50 came out at 0.06 µM. This compound yielded an IC50 in data set [3] (48 h) of 13 µM.
